Type in all cases: cell-based, mouse
In one assay the test system is A20. Description: A20 protein level and degradation in bEnd.3 cells (western blot, cycloheximide chase). As to conditions: for A20 protein levels in Nat1-KD cells: Nat1-KD bEnd.3 cells, chloroquine 10 uM, E64d 5 ug/ml, sodium acetate over 24 h. In general terms: Immunoblotting shows a protein as a band on a membrane.
A further assay relates to Nat1 mRNA. Description: Nat1 mRNA expression in bEnd.3 cells. As to conditions: for insulin-induced Nat1 mRNA up-regulation: applied half an hour prior to insulin, MK-2206 5 uM, rapamycin 250 nM, oligomeric Aβ1-42 100 nM. The source says: FIG. 7: N-acetyltransferase 1 (Nat1) expression decreases in the brain ECs of AD. […] Fluorescence activated cell sorting (FACS) was used to isolate ECs (CD31^high and CD45^low) from single cell suspensions of brain tissues. The differentially expressed genes between APP/PS1 and WT groups were compared using edgeR and 116 genes were identified. […] Panels c and d show the expression of Nat1 protein (mouse)/Nat2 protein (human) in brain microvessels decreases during AD pathogenesis. Microvessels from mouse or human brains were isolated as described in Munikoti, et al. Journal of neuroscience methods 207, 80-85 (2012) and Boulay et al. Journal of visualized experiments: JoVE, e53208 (2015). […] Different concentrations of insulin were applied into the culture medium for 18 h. […] MK-2206(5 uM, Akt inhibitor), Repamycin (250 nM, mTOR inhibitor) or oligomeric Aβ1-42 (100 nM) was applied to the culture medium of bEnd.3 cells half an hour prior to the treatment of insulin.
To understand the mechanisms that mediate cerebral EC death and dysfunction in the pathogenesis of AD, fluorescence-activated cell sorting (FACS) was used to isolate ECs from the cerebrum of wild-type (WT) and APPswePSEN1dE9 (APP/PS1) mice (5-6 months of age). RNA sequencing (RNAseq) was used to profile gene expression between these groups, and differential gene expression was analyzed using edgeR (as described in Robinson, M. D., et al. Bioinformatics 26, 139-140 (2010)) (FIG. 7A). […] The decrease in Nat1 mRNA expression in cerebral ECs during AD pathogenesis was further confirmed by quantitative PCR (qPCR) (FIG. 7B). […] To validate the relevance of this finding in human AD pathogenesis, protein levels of NAT2 (the human homolog of mouse NAT1) in microvessels isolated from the brains of AD patients were assessed and compared to age-matched controls. […] To determine whether Nat1 expression might also be insulin-sensitive in immortalized mouse cerebral ECs (bEnd.3 cells), it was assessed whether increased concentrations of insulin could upregulate Nat1 (FIG. 7E).

The subject of another assay is bEnd.3 cells. Description: TNFα-induced cell death in bEnd.3 cells (SYTOX green). The settings on record: Nat1-KD bEnd.3 cells, TNFα 100 ng/ml; Nec1s 10 uM, 24 h; sodium acetate in culture medium.
In another assay the test system is RIPK1. In words: RIPK1 activation (p-S166, ubiquitination in complex I) in TNFα-treated bEnd.3 cells. As to conditions: Nat1-KD bEnd.3 cells, sodium acetate 100 mM, flag-TNFα 100 ng/ml.
The subject of assay [1] is acetyl coenzyme A (acetyl-CoA). Description: Acetyl-CoA concentration in bEnd.3 cells. As to conditions: Nat1-KD bEnd.3 cells, sodium acetate over 24 h. As for the experimental part: FIG. 9A-H: Decreased acetylation of A20 promotes the susceptibility of Nat-1 KD cells to TNFα induced cell death. […] Mitochondria was stained with MitoTracker and imaged in live cells. The scale bar represents 20 and 5 um, respectively. […] For N-terminal acetylation, subtiligase reaction as described in Yi et al. Cell 146, 607-620 (2011) was used. Biotin was added into the free N-terminal residue. […] For lysine acetylation, we first of all adjusted the protein concentrations to equalize A20 input in cell lysates of ctrl and Nat1-KD groups. Anti-acetylated lysine antibody was used for IP and anti-A20 antibody was used for WB. […] Nat1-KD bEnd.3 cells were treated with flag-TNFα (100 ng/ml) as the indicated time course. […]
Analysis of Nat1 knockout mice previously reported increased mitochondrial damage and fragmentation (Camporez, J. P. et al. Proceedings of the National Academy of Sciences of the United States of America 114, E11285-E11292 (2017)). […] Since Nat1 deficiency affects metabolism which may affect the cellular levels of acetyl-CoA, the concentration of total acetyl-CoA in Nat1-KD cells was determined. […] Further, supplementation with sodium acetate is also able to rescue the hyperactivation of RIPK1 in Nat1-KD cells in response to TNFα, as measured by RIPK1 ubiquitination (FIG. 9G). […]

Peptide text beside a SMILES is read from it. * marks the point of attachment. Cbz = O=C(OCc1ccccc1)*

Description for A20: (§1) Nat1-KD in bEnd.3 cells were conducted by lentivirus transfection with Nat1 shRNA. Ctrl group was transfected with lentivirus expressing scrambled shRNA. The efficiency of Nat-1 KD was confirmed by western blotting (WB). TNFα(100 ng/ml) was applied in Ctrl or Nat-KD cells for 24 h with or without Ripk1 inhibitor, Nec1s (10 uM). Cell death was quantified with SYTOX green staining. […] Using Tandem Mass Tag (TMT) isobaric labeling mass spectrometry (MS), we identified 7707 proteins in Nat1-KD and Ctrl bEND.3 cells. […] Nat1-KD or Ctrl bEnd.3 cells were treated with Flag-TNFα (50 ng/ml) as the indicated time course. Ripk1 activation was examined by the blotting of p-S166 Ripk1 for cell lysates.
Panels b and c show bEnd.3 cells treated with cycloheximide (CHX, 250 ug/ml) to investigate the degradation kinetics of A20. […] Panels e and f show Chloroquine (CQ, 10 uM) and E64d (5 ug/ml) applied for inhibiting lysosomal protein degradation.
(§2) Since A20 is an important suppressor of RIPK1 activation, RIPK1 activation and Complex I assembly were next assessed in Nat1-KD or Ctrl bEnd.3 cells treated with TNFα.
To understand the mechanism by which A20 is decreased in Nat1-KD cells, it was first assessed whether this alteration was occurring at the protein or mRNA level. […] Nat1-KD and Ctrl bEnd.3 cells were treated with cycloheximide to investigate the kinetics of A20 degradation.
Description for RIPK1: as §1
Mitochondria was stained with MitoTracker and imaged in live cells. […] For N-terminal acetylation, subtiligase reaction as described in Yi et al. Cell 146, 607-620 (2011) was used. Biotin was added into the free N-terminal residue. […] For lysine acetylation, we first of all adjusted the protein concentrations to equalize A20 input in cell lysates of ctrl and Nat1-KD groups. Anti-acetylated lysine antibody was used for IP and anti-A20 antibody was used for WB. […]
as §2

For the compound `CCOC(=O)[C@H]1O[C@@H]1C(=O)N[C@@H](CC(C)C)C(=O)NCCC(C)C` [E64D], the “A20 protein levels in Nat1-KD cells” value in the assay on A20 was “rescued”.
Regarding `CC(C)C[C@@H](C=O)NC(=O)[C@H](CC(C)C)NC(=O)[C@H](CC(C)C)NC(=O)OCc1ccccc1` [MG132] (Cbz-Leu-Leu-Leu-aldehyde), in the assay with A20 (both Ctrl and Nat1-KD bEnd.3 cells, MG132 10 uM), the “protein expression of A20” value is “reduced”.
As to `NC1(c2ccc(-c3nc4ccn5c(=O)[nH]nc5c4cc3-c3ccccc3)cc2)CCC1` [MK-2206], the “insulin-induced Nat1 mRNA up-regulation” value in the assay with Nat1 mRNA was “negated”.
Consider `CN1C(=O)NC(Cc2c[nH]c3c(Cl)cccc23)C1=O` (centres unmarked) [Nec-1s], for which, in the assay with bEnd.3 cells, the “TNFα-induced cell death in Nat1-KD cells” value is “rescued”.
In the case of `CCN(CC)CCCC(C)Nc1ccnc2cc(Cl)ccc12` (centres unmarked) [chloroquine], the “A20 protein levels in Nat1-KD cells” value in the assay on A20 is recorded as “rescued”.
As to `CC(=O)[O-].[Na+]` [sodium acetate], the “hyperactivation of RIPK1 in response to TNFα, as measured by RIPK1 ubiquitination” value with RIPK1 is recorded as “rescue”. In the assay with bEnd.3 cells, the “TNFα-induced cell death in Nat1-KD cells” value was “rescues”. Also, the “A20 protein levels in Nat1-KD cells” value with A20 is “rescue”. Also, the “acetyl-CoA in Nat1-KD cells” value in assay [1] is recorded as “rescue”.
Consider “insulin: exogenous insulin applied into the culture medium”, for which the “Nat1 mRNA expression” value in the assay on Nat1 mRNA (different concentrations in culture medium, 18 h) is “increases”.
For “oligomeric Aβ1-42: oligomeric amyloid beta 1-42”, the “insulin-induced Nat1 mRNA up-regulation” value in the assay on Nat1 mRNA is recorded as “blocked”.

The values are drawn from patent US20210147842A1, “METHODS AND COMPOSITIONS FOR INHIBITING NECROPTOSIS IN NEUROVASCULAR AND/OR NEURODEGENERATIVE DISEASES OR DISORDERS” (President and Fellows of Harvard College, priority 2019, published 2021).
